Source: article PMC12013085, “Peptides targeting RAB11A–FIP2 complex inhibit HPIV3, RSV, and IAV replication as broad-spectrum antivirals” (Cell & Bioscience, 2025)
pIC50: −log10 of the molar value. Where two headings read alike, the source gives them in different places.

How the values were obtained:
HPIV3 VLPs in 293T cells = experiment: HPIV3 VLP budding and plasma membrane fraction assay, WB; format: cell-based; details: 293T cells transfected with N, P, M plasmids 30 h, inhibitor for 6 h
Description: Data are presented as means ± SEM
The cell lysates were prepared as described for the Western blot (WB) analysis. The supernatant was harvested and clarified by centrifugation at 12,000×g for 5 min. Subsequently, the supernatant was pelleted through a 20% sucrose cushion at 4 °C at 35,000 rpm for 2 h. The VLP pellets obtained were resuspended in PBS and boiled with SDS-PAGE loading buffer at 100 °C for 10 min. Both the cell lysates and the supernatants were then subjected to WB analysis.
293T cells, cultured in 6-cm dishes, were transfected with the indicated plasmids for 24 h. Cell collection was performed through centrifugation at 500×g for 5 min at 4 °C. Subsequently, cytosol, organelle membrane, and plasma membrane-associated proteins were extracted sequentially using the MinuteTM plasma membrane protein isolation and cell fractionation kit (INVENT), following the manufacturer's instructions.

HPIV3 [1] = experiment: Late-stage HPIV3 replication with cytoskeleton inhibitors (TCID50, RT-qPCR, WB); details: HeLa cells infected 18 h, then inhibitor for 6 h; for viral RNA synthesis and protein expression levels: RT-qPCR and WB; for HPIV3 virions in the supernatant / intracellular progeny virus particles: TCID50 at 24 hpi
Description: To investigate the role of the cytoskeleton in the later stages of infection, HeLa cells were infected with HPIV3 for 18 h before being treated with the inhibitors for an additional 6 h.
A–D Impact of cytoskeleton inhibitors on HPIV3 replication. HeLa cells infected with HPIV3 for 18 h were treated with Nocodazole (NCZ) or Cytochalasin D (Cyto D). At 24 h post infection (hpi), the virions released in the cell supernatant (A) and the quantity of intracellular progeny virus particles (B) were determined by TCID50 assays. Cells were collected for RT-qPCR analysis of intracellular viral RNA (C), and Western Blot (WB) analysis of intracellular viral protein (D). […] All experiments were independently repeated at least twice with reproducible results. Statistical significance (*p < 0.05, **p < 0.01, ***p < 0.001) was determined by two-sided unpaired t test. Data are means ± SEM

WSN virus = format: in vivo, BALB/c mice; details: 20 mg/kg i.p. once daily Day 0 to Day 4, positive control, n = 5
HPIV3 [2] = tested on: HPIV3
HeLa cells = experiment: Cellular uptake of FITC-labeled RBD, fluorescent microscopy; format: in vitro ADME; details: 5 μM FITC-labeled RBD, with or without HPIV3HA-P infection, fluorescent microscopy at 24 hpi
Description: Supplementary file 13578_2025_1384_MOESM4_ESM.tif: Supplementary Material 4. Fig. S4. Cell penetration, cytotoxicity, and anti-HPIV3 activity of RBD in different cell lines. (A) Cellular uptake of FITC-labeled RBD in HeLa Cells. HeLa cells were exposed to 5 μM FITC-labeled RBD in the absence or presence of HPIV3HA-P infection, and analyzed by fluorescent microscopy at 24 hpi. RBD (green), HPIV3HA-P (red), and nuclei were stained with DAPI. Scale bar, 50 μm. (B to F) Cytotoxicity of RBD in various cell lines. Cell viability was assessed in HeLa (B), A549 (C), MK2 (D), MDCK (E) and HEp-2 cells (F) treated with increasing concentrations of […] for 24 h using the CCK-8 assay. (G to I) Antiviral efficacy of RBD against HPIV3 in different cell lines. A549 (G), MK2 (H) and MDCK (I) cells were treated with 2-fold-increasing concentrations of RBD for 24h, and viral titers in the cell supernatant were determined by TCID50. […] Data are means ± SEM.

[3] = tested on: HeLa, A549, MK2, MDCK and HEp-2 cells; details: CCK-8, 24 h treatment, in the tested cell lines (HeLa, A549, MK2, MDCK, HEp-2)

Compound: C=C1[C@@H](C)[C@H]2[C@H](Cc3ccccc3)NC(=O)[C@]23[C@H](OC(C)=O)/C=C/[C@@](C)(O)C(=O)[C@@H](C)C/C=C/[C@H]3[C@@H]1O [Cyto D, Cytochalasin D]
- VLP production (HPIV3 VLPs in 293T cells): substantial impact
- viral RNA synthesis and protein expression levels (HPIV3 [1]): unaffected
- HPIV3 virions in the supernatant (HPIV3 [1]): significant reduction
- intracellular progeny virus particles (HPIV3 [1]): decrease

Compound: COC(=O)Nc1nc2ccc(C(=O)c3cccs3)cc2[nH]1 [NCZ, Nocodazole]
- VLP production (HPIV3 VLPs in 293T cells): modest effect
- viral RNA synthesis and protein expression levels (HPIV3 [1]): unaffected
- HPIV3 virions in the supernatant (HPIV3 [1]): significant reduction
- intracellular progeny virus particles (HPIV3 [1]): decrease

Compound: CCOC(=O)C1=C[C@@H](OC(CC)CC)[C@H](NC(C)=O)[C@@H](N)C1 [Osel, Oseltamivir, reference compound]
- protection against morbidity and mortality, IAV (WSN) (WSN virus): complete protection against morbidity and mortality

Compound: N=C(N)NCCC[C@H](NC(=O)[C@H](CCCNC(=N)N)NC(=O)[C@H](CCCNC(=N)N)NC(=O)[C@H](CCC(N)=O)NC(=O)[C@H](CCCNC(=N)N)NC(=O)[C@H](CCCNC(=N)N)NC(=O)[C@H](CCCCN)NC(=O)[C@H](CCCCN)NC(=O)[C@@H](N)CCCNC(=N)N)C(=O)O [Tat, reference compound]
- antiviral effect on HPIV3 infection (in words) (HPIV3 [2]; HeLa cells, escalating concentrations, 24 hpi, WB and TCID50): no discernible antiviral effect

Compound: THIRELEDYIDNLLVRVMEETPSILRVPRKKRRQRRR [RBD]
- cell penetration (cellular uptake) (HeLa cells): efficiently penetrated HeLa cells
- SI (CC50/IC50), HPIV3, A549 (HPIV3 [2]; A549 cells): > 21.55
- SI (CC50/IC50), HPIV3, HeLa (HPIV3 [2]; HeLa cells): > 23.08
- SI (CC50/IC50), HPIV3, MDCK (HPIV3 [2]; MDCK cells): > 15.37
- SI (CC50/IC50), HPIV3, MK2 (HPIV3 [2]; MK2 cells): > 27.68
- pIC50 (HPIV3 [2]; read-out: IC50, HPIV3, A549): 5.46
- pIC50 (HPIV3 [2]; read-out: IC50, HPIV3, HeLa): 5.49
- pIC50 (HPIV3 [2]; read-out: IC50, HPIV3, MDCK): 5.31
- pIC50 (HPIV3 [2]; read-out: IC50, HPIV3, MK2): 5.57
- CC50 [3]: > 75 µM
